According to patent publication US11272709B2, “Amidine substituted benzoyl derivatives useful as herbicides” (Syngenta Participations AG, priority 2018, dated 2022):

Tests used:
Type in all cases: in vivo
[1] = Comparative experiment, compound 1.049 versus Compound C1, (%) phytotoxicity observed (Table B2); conditions: rate 31 g/ha; for (%) phytotoxicity observed, POST Application ECHCG / (%) phytotoxicity observed, PRE Application ECHCG: Echinochloa crus-galli (ECHCG); for (%) phytotoxicity observed, POST Application SETFA / (%) phytotoxicity observed, PRE Application SETFA: Setaria faberi (SETFA)
Protocol: Seeds of a variety of test species are sown in standard soil in pots (Lolium perenne (LOLPE), Amaranthus retoflexus (AMARE), Abutilon theophrasti (ABUTH), Setaria faberi (SETFA), Echinochloa crus-galli (ECHCG), Ipomoea hederacea (IPOHE)). After cultivation for one day (pre-emergence) or after 8 days cultivation (post-emergence) under controlled conditions in a glasshouse (at 24/16° C., day/night; 14 hours light; 65% humidity), the plants are sprayed with an aqueous spray solution derived from the formulation of the technical active ingredient in acetone/water (50:50) solution containing 0.5% Tween 20 (polyoxyethelyene sorbitan monolaurate, CAS RN 9005-64-5). Compounds are applied at […] unless otherwise indicated. The test plants are then grown in a glasshouse under controlled conditions in a glasshouse (at 24/16° C., day/night; 14 hours light; 65% humidity) and watered twice daily. After 13 days for pre and post-emergence, the test is evaluated for the percentage damage caused to the plant. The biological activities are shown in the following table on a five point scale (5=80-100%; 4=60-79%; 3=40-59%; 2=20-39%; 1=0-19%). [table]

[2] = test system: Abutilon theophrasti (ABUTH); assay: Pre-emergence herbicidal glasshouse test, Abutilon theophrasti (ABUTH); conditions: 500 g/h, evaluated after 13 days
Procedure, shortened: (§1)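 Plants sprayed 1 day (pre-emergence) or 8 days (post-emergence) after sowing, at 500 g/h unless indicated, in acetone/water (50:50) with 0.5% Tween 20. Glasshouse 24/16 °C, 14 h light, 65% humidity. Damage scored at 13 days on a five-point scale (5=80-100% to 1=0-19%).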

[3] = test system: Ipomoea hederacea (IPOHE); assay: Pre-emergence herbicidal glasshouse test, Ipomoea hederacea (IPOHE); conditions: 500 g/h, evaluated after 13 days
Procedure, shortened: as §1

[4] = test system: Amaranthus retoflexus (AMARE); assay: Post-emergence herbicidal glasshouse test, Amaranthus retoflexus (AMARE); conditions: 500 g/h, evaluated after 13 days
Procedure, shortened: as §1

Setaria faberi (SETFA) [5] = assay: Post-emergence herbicidal glasshouse test, Setaria faberi (SETFA); conditions: 500 g/h, evaluated after 13 days
Procedure, shortened: as §1

[6] = test system: Ipomoea hederacea (IPOHE); assay: Post-emergence herbicidal glasshouse test, Ipomoea hederacea (IPOHE); conditions: 500 g/h, evaluated after 13 days
Procedure, shortened: as §1

Setaria faberi (SETFA) [7] = assay: Pre-emergence herbicidal glasshouse test, Setaria faberi (SETFA); conditions: 500 g/h, evaluated after 13 days
Procedure, shortened: as §1

[8] = test system: Amaranthus retoflexus (AMARE); assay: Pre-emergence herbicidal glasshouse test, Amaranthus retoflexus (AMARE); conditions: 500 g/h, evaluated after 13 days
Procedure, shortened: as §1

[9] = test system: Echinochloa crus-galli (ECHCG); assay: Post-emergence herbicidal glasshouse test, Echinochloa crus-galli (ECHCG); conditions: 500 g/h, evaluated after 13 days
Procedure, shortened: as §1

[10] = test system: Echinochloa crus-galli (ECHCG); assay: Pre-emergence herbicidal glasshouse test, Echinochloa crus-galli (ECHCG); conditions: 500 g/h, evaluated after 13 days
Procedure, shortened: as §1

[11] = test system: Abutilon theophrasti (ABUTH); assay: Post-emergence herbicidal glasshouse test, Abutilon theophrasti (ABUTH); conditions: 500 g/h, evaluated after 13 days
Procedure, shortened: as §1

Row | Structure (SMILES) | (%) phytotoxicity observed, POST Application ECHCG [1] [%] | (%) phytotoxicity observed, PRE Application ECHCG [1] [%] | (%) phytotoxicity observed, POST Application SETFA [1] [%] | (%) phytotoxicity observed, PRE Application SETFA [1] [%] | PRE Application ABUTH, percentage damage (five point scale) [2] | PRE Application IPOHE, percentage damage (five point scale) [3] | POST Application AMARE, percentage damage (five point scale) [4] | POST Application SETFA, percentage damage (five point scale) (Setaria faberi (SETFA) [5]) | POST Application IPOHE, percentage damage (five point scale) [6] | PRE Application SETFA, percentage damage (five point scale) (Setaria faberi (SETFA) [7]) | PRE Application AMARE, percentage damage (five point scale) [8] | POST Application ECHCG, percentage damage (five point scale) [9] | PRE Application ECHCG, percentage damage (five point scale) [10] | POST Application ABUTH, percentage damage (five point scale) [11]
1 | Cn1nnnc1NC(=O)c1ccc(C(F)(F)F)c(N)c1Cl [Cl] | 0 | 0 | 20 | 0 |  |  |  |  |  |  |  |  |  | 
2 | CN(C)C=Nc1c(C(F)(F)F)ccc(C(=O)Nc2nnnn2C)c1Cl [Compound 1.049] | 90 | 90 | 90 | 90 | 5 (5=80-100%) | 5 (5=80-100%) | 5 (5=80-100%) | 5 (5=80-100%) | 5 (5=80-100%) | 5 (5=80-100%) | 5 (5=80-100%) | 5 (5=80-100%) | 5 (5=80-100%) | 5 (5=80-100%)
3 | CON=C(C)N(C)Cc1c(C(F)(F)F)ccc(C(=O)Nc2nnnn2C)c1Cl [Compound 4.014] |  |  |  |  | 5 (5=80-100%) | 5 (5=80-100%) | 5 (5=80-100%) | 5 (5=80-100%) | 5 (5=80-100%) | 5 (5=80-100%) | 5 (5=80-100%) | 5 (5=80-100%) | 5 (5=80-100%) | 5 (5=80-100%)
4 | CON=C(C)N(C)Cc1c(S(C)(=O)=O)ccc(C(=O)Nc2nnnn2C)c1Cl [Compound 4.016, 2-chloro-3-[[[N-methoxy-C-methyl-carbonimidoyl]-methyl-amino]methyl]-4-methylsulfonyl-N-(1-methyltetrazol-5-yl)benzamide] |  |  |  |  | 5 (5=80-100%) | 5 (5=80-100%) | 4 (4=60-79%) | 5 (5=80-100%) | 4 (4=60-79%) | 5 (5=80-100%) | 5 (5=80-100%) | 5 (5=80-100%) | 5 (5=80-100%) | 3 (3=40-59%)
5 | CON=C(C)N(C)Cc1c(S(C)(=O)=O)ccc(C(=O)Nc2nnc(C)o2)c1Cl [Compound 5.016] |  |  |  |  | 5 (5=80-100%) | 5 (5=80-100%) | 4 (4=60-79%) | 5 (5=80-100%) | 4 (4=60-79%) | 5 (5=80-100%) | 5 (5=80-100%) | 5 (5=80-100%) | 5 (5=80-100%) | 3 (3=40-59%)
6 | CCCn1nnnc1NC(=O)c1ccc(S(C)(=O)=O)c(N=CN(C)C)c1C [Compound 7.002] |  |  |  |  | 5 (5=80-100%) | 5 (5=80-100%) | 5 (5=80-100%) | 5 (5=80-100%) | 4 (4=60-79%) | 5 (5=80-100%) | 5 (5=80-100%) | 5 (5=80-100%) | 5 (5=80-100%) | 5 (5=80-100%)
7 | COCCn1nnnc1NC(=O)c1ccc(S(C)(=O)=O)c(N=CN(C)C)c1C [Compound 7.003] |  |  |  |  | 5 (5=80-100%) | 5 (5=80-100%) | 5 (5=80-100%) | 5 (5=80-100%) | 5 (5=80-100%) | 5 (5=80-100%) | 5 (5=80-100%) | 5 (5=80-100%) | 5 (5=80-100%) | 5 (5=80-100%)
